Test results from patent US9409952B2, “Peptide-compound cyclization method” (Chugai Seiyaku Kabushiki Kaisha, priority 2011, dated 2016).
Like-named read-outs stand apart in the source and are kept apart here. Starred links: 1 amine or outer side, 2 acyl side, 3 side chain; linkers in the order of their positions; H or OH if unused. Positions of bridges follow the written chain, without caps; N, C: chain ends. Non-standard residues stand in square brackets, D forms with d. Residues, ends and D or L forms follow the SMILES beside them. *: point of attachment. NMeF = CN[C@@H](Cc1ccccc1)C(=O)O; NMeI = CC[C@H](C)[C@H](NC)C(=O)O; NMeβAla = CN(CCC(=O)[*:2])[*:1]; NMeL = CN[C@@H](CC(C)C)C(=O)O; NMeV = CN[C@H](C(=O)O)C(C)C; NMeA = CN[C@@H](C)C(=O)O; Piperidide = C1CCN(*)CC1; β3hA = C[C@H](N)CC(=O)O; Sar = CNCC(=O)O; tBu = CC(C)(C)*

Columns and labels:
[1] = PAMPA (parallel artificial membrane permeability assay); type: in vitro ADME; details: PAMPA
How it was run: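 Artificial membrane was 10% (w/v) egg lecithin plus 0.5% (w/v) cholesterol in dodecane on a PVDF filter. A 10 mM DMSO stock was added at 0.5% (v/v) to donor buffer (50 mM MOPSO, pH 6.5, 5.0% glycocholic acid). After 18 h at 37 °C, LC/MS or LC/UV gave donor and acceptor levels for Pe.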

[2] = Metabolic stability in human hepatic microsome; type: in vitro ADME; details: microsomes
[3] = membrane permeation rate (Pe), 50 mM MOPSO buffer pH 6.5 with 5.0% glycocholic acid, 37° C., 18 hours, read-out: iPAMPA Pe
[4] = pH 7.4, human hepatic microsome, NADPH(+), read-out: CL NADPH(+)

CC[C@H](C)[C@H]1C(=O)N(C)[C@@H](C)C(=O)N(C)[C@@H](CC(C)C)C(=O)N[C@@H](COC(C)(C)C)C(=O)N(C)[C@@H](CC(C)C)C(=O)N[C@@H](C)CC(=O)N(C)[C@@H](C)C(=O)N(C)[C@@H](Cc2ccccc2)C(=O)N[C@@H](CC(C)C)C(=O)N(C)[C@@H](CC(C)C)C(=O)N[C@@H]([C@@H](C)O)C(=O)N[C@@H](Cc2ccccc2)C(=O)N1C [DP-761] (cyclo(F[NMeI][NMeA][NMeL]S(tBu)[NMeL][β3hA][NMeA][NMeF]L[NMeL]T))
Papp at 18 hours, 50 µM ([1]; pH 6.5): 9.2 ×10⁻⁶ cm/s | microsomal CLint at 1 uM ([2]; human, pH 7.4, CL NADPH(+)): 118 µL/min/mg

CC(C)C[C@H]1C(=O)N[C@@H]([C@@H](C)O)C(=O)N(C)[C@@H](Cc2ccccc2)C(=O)N[C@@H](COC(C)(C)C)C(=O)N[C@H](C(=O)N2CCCCC2)CC(=O)N[C@@H](C(C)C)C(=O)N(C)CC(=O)N1C [DP-749] (V[Sar][NMeL]T[NMeF]S(tBu)D-Piperidide; lactam N-7)
Papp at 18 hours, 50 µM [1, 3]: 17 ×10⁻⁶ cm/s | microsomal CLint at 1 uM [2, 4]: 56 µL/min/mg

CC[C@H](C)[C@H](NC(=O)[C@H](Cc1ccccc1)N(C)C(=O)[C@@H](NC(=O)[C@H](C)NC(=O)[C@H](CC(C)C)N(C)C(=O)[C@@H]1CC(=O)N(C)[C@@H](C)C(=O)N(C)[C@@H](CC(C)C)C(=O)N(C)[C@@H](Cc2ccccc2)C(=O)N[C@@H]([C@@H](C)O)C(=O)N(C)[C@@H](CC(C)C)C(=O)N(C)[C@@H](CC(C)C)C(=O)N[C@@H]([C@@H](C)CC)C(=O)N(C)[C@@H](CC(C)C)C(=O)N1)C(C)C)C(=O)N1CCCCC1 [DP-938] ([NMeA][NMeL][NMeF]T[NMeL][NMeL]I[NMeL]D[NMeL]AV[NMeF]I-Piperidide; lactam N-9)
Papp at 18 hours, 50 µM [1, 3]: 0.1 ×10⁻⁶ cm/s | microsomal CLint at 1 uM [2, 4]: 8 µL/min/mg

CC[C@H](C)[C@H]1C(=O)N[C@@H](C)C(=O)N[C@@H](Cc2ccccc2)C(=O)N(C)[C@@H](Cc2ccccc2)C(=O)N[C@@H]([C@@H](C)O)C(=O)N(C)[C@@H](C)C(=O)N[C@@H](CC(C)C)C(=O)N[C@H](C(=O)N2CCCCC2)CC(=O)N[C@H](C(C)C)C(=O)N(C)[C@@H](C(C)C)C(=O)NCC(=O)N(C)[C@@H](CC(C)C)C(=O)N1C [DP-217] ([dV][NMeV]G[NMeL][NMeI]AF[NMeF]T[NMeA]LD-Piperidide; lactam N-12)
Papp at 18 hours, 50 µM [1, 3]: 38 ×10⁻⁶ cm/s | microsomal CLint at 1 uM [2, 4]: 37 µL/min/mg

CC(C)C[C@H]1C(=O)N[C@@H]([C@@H](C)O)C(=O)N(C)[C@@H](C)C(=O)N[C@@H](C(C)C)C(=O)N(C)[C@@H](C)C(=O)N(C)[C@@H](C)C(=O)N[C@H](C(=O)N(C)[C@@H](Cc2ccccc2)C(=O)N(C)[C@@H](Cc2ccccc2)C(=O)N[C@@H](C)C(=O)N2CCCCC2)CC(=O)N(C)[C@@H](C)C(=O)N(C)[C@@H](Cc2ccccc2)C(=O)N1C [DP-464] ([NMeA][NMeF][NMeL]T[NMeA]V[NMeA][NMeA]D[NMeF][NMeF]A-Piperidide; lactam N-9)
Papp at 18 hours, 50 µM [1, 3]: 25 ×10⁻⁶ cm/s | microsomal CLint at 1 uM [2, 4]: 30 µL/min/mg

CC[C@H](C)[C@@H]1NC(=O)[C@H](C)NC(=O)C[C@@H](C(=O)N(C)[C@@H](Cc2ccccc2)C(=O)N(C)[C@@H](Cc2ccccc2)C(=O)N[C@@H](C)C(=O)N2CCCCC2)NC(=O)[C@H](C)NC(=O)[C@H](C)N(C)C(=O)[C@H](CC(C)C)N(C)C(=O)CN(C)C(=O)[C@H]([C@@H](C)O)NC(=O)[C@H](C(C)C)N(C)C(=O)[C@H](Cc2ccccc2)N(C)C1=O [DP-389] (AI[NMeF][NMeV]T[Sar][NMeL][NMeA]AD[NMeF][NMeF]A-Piperidide; lactam N-10)
Papp at 18 hours, 50 µM [1, 3]: 15 ×10⁻⁶ cm/s | microsomal CLint at 1 uM [2, 4]: 14 µL/min/mg

CC(C)C[C@H]1C(=O)N(C)[C@@H](Cc2ccccc2)C(=O)N(C)[C@@H](CC(C)C)C(=O)N[C@@H](Cc2ccccc2)C(=O)N[C@@H]([C@@H](C)O)C(=O)N(C)[C@@H](C)C(=O)N[C@H](C(=O)N2CCCCC2)CC(=O)N(C)CCC(=O)N[C@@H](C)C(=O)N1C [DP-153] ([NMeβAla]A[NMeL][NMeF][NMeL]FT[NMeA]D-Piperidide; lactam N-9)
Papp at 18 hours, 50 µM [1, 3]: 26 ×10⁻⁶ cm/s | microsomal CLint at 1 uM [2, 4]: 179 µL/min/mg

CC[C@H](C)[C@@H]1NC(=O)[C@H](CC(C)C)N(C)C(=O)[C@H](CC(C)C)N(C)C(=O)[C@@H](C(C)C)NC(=O)C[C@H](C)NC(=O)[C@H](CC(C)C)N(C)C(=O)[C@H](C)N(C)C(=O)[C@H]([C@@H](C)O)NC(=O)[C@H](CC(C)C)N(C)C(=O)[C@H](C)N(C)C1=O [DP-813] (cyclo(I[NMeA][NMeL]T[NMeA][NMeL][β3hA][dV][NMeL][NMeL]))
Papp at 18 hours, 50 µM [1, 3]: 30 ×10⁻⁶ cm/s | microsomal CLint at 1 uM [2, 4]: 195 µL/min/mg

CC[C@H](C)[C@@H]1NC(=O)[C@H](Cc2ccccc2)N(C)C(=O)[C@@H](C)NC(=O)C[C@@H](C(=O)N(C)[C@@H](Cc2ccccc2)C(=O)N(C)[C@@H](Cc2ccccc2)C(=O)N[C@@H](C)C(=O)N2CCCCC2)NC(=O)[C@H](C(C)C)NC(=O)CN(C)C(=O)[C@H]([C@@H](C)O)NC1=O [DP-569] ([dA][NMeF]IT[Sar]VD[NMeF][NMeF]A-Piperidide; lactam N-7)
Papp at 18 hours, 50 µM [1, 3]: 21 ×10⁻⁶ cm/s | microsomal CLint at 1 uM [2, 4]: 203 µL/min/mg
